Active and inactive are the calls of the source. Cut-off read from the data, not from the text of the source: actives have a measured IC50 and inactives only a lower limit.
target: Envelope glycoprotein gp160 (Human immunodeficiency virus 1, UniProt Q6QLK5); assay: inhibitors of HIV fusion peptide binding, primary screen, biochemical, uHTS, fluorescence dequenching (AID 1986)
Sequence (Q6QLK5 whole entry, the tested form may be a part): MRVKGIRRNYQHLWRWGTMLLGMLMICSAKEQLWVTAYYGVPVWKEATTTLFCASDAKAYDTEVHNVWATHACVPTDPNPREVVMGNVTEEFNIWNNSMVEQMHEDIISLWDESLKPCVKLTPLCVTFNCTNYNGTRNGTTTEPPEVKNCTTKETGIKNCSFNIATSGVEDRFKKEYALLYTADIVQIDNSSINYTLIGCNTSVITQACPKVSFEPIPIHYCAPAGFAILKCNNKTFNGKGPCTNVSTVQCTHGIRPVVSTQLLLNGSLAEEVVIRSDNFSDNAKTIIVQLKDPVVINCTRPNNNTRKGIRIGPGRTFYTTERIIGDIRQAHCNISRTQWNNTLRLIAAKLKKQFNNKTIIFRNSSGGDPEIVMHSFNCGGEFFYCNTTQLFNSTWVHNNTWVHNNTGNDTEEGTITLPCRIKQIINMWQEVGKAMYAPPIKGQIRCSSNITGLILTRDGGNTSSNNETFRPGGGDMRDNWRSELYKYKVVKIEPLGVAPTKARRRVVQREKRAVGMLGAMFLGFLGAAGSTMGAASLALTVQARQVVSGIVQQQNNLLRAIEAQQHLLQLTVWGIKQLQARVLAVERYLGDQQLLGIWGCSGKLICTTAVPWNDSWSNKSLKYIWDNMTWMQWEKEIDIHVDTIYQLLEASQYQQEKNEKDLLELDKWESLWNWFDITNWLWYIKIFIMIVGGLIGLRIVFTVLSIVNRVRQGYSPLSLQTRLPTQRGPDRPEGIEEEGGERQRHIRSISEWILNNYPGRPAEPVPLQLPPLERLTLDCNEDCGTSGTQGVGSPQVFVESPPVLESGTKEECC

SMILES	IC50
COc1ccc(-c2csc(NC(=O)c3ccccc3NS(=O)(=O)c3ccc(C)cc3)n2)cc1	12.4 µM (active)
CCCCCNC(=O)c1ccc2c(=O)[nH]c3c(C(=O)NCC4CCCO4)sc(=S)n3c2c1 (stereo not drawn)	20 µM (active)
CC(C)(C)c1ccc2c(c1)OC(C(=O)N/N=C\c1ccc(-c3cccc(C(=O)O)c3)o1)CO2 (stereo not drawn)	14.1 µM (active)
